Positions of bridges follow the written chain, without caps; N, C: chain ends. Residues, ends and D or L forms follow the SMILES beside them.
Target: T1, Serine protease 1 (Bos taurus) (UniProt P00760)
T1 sequence (whole entry): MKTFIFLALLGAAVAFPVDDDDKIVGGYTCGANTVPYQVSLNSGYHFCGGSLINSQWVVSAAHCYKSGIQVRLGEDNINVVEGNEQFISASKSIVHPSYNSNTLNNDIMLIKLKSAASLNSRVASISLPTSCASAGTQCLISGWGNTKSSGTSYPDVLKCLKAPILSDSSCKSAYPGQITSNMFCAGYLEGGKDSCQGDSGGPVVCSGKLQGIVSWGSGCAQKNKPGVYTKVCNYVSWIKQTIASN
Assay: Inhibition of bovine beta-trypsin using BAPNA as substrate assessed as […]

| Activity [nM] | Compound |
| --- | --- |
| 536 | CC[C@H](C)[C@@H]1NC(=O)[C@H](CCCNC(=N)N)NC(=O)[C@H](CC(C)C)NC(=O)[C@H](CCCNC(=N)N)NC(=O)[C@@H]2CCCN2C(=O)[C@@H]2CCCN2C(=O)[C@H](Cc2cnc[nH]2)NC(=O)[C@@H]2CCCN2C(=O)[C@H](C(C)C)NC(=O)[C@@H]2CSSC[C@@H]3NC(=O)[C@H]([C@@H](C)CC)NC(=O)[C@H](CCC(N)=O)NC(=O)[C@H](CC(=O)O)NC(=O)[C@H]([C@@H](C)O)NC(=O)[C@H](CCCCN)NC(=O)[C@H](C)NC(=O)[C@@H](NC(=O)[C@H](CCC(=O)O)NC(=O)[C@H](CCC(=O)O)NC(=O)[C@H](CC(=O)O)NC(=O)[C@@H](N)CCC(=O)O)CSSC[C@H](NC(=O)[C@H](CSSC[C@@H](C(=O)N[C@@H](C)C(=O)O)NC(=O)[C@H](C(C)C)NC(=O)[C@H](Cc4ccccc4)NC1=O)NC(=O)[C@H](Cc1ccc(O)cc1)NC(=O)[C@H](CC(N)=O)NC(=O)[C@@H]1CCCN1C(=O)[C@H](C)NC(=O)[C@H](CC(N)=O)NC(=O)[C@@H]1CCCN1C(=O)[C@@H]1CCCN1C3=O)C(=O)N[C@@H](CO)C(=O)NCC(=O)N[C@@H](CO)C(=O)N2 (H-EDEECAKTDQICPPNAPNYCCSGSCVPHPPRLRIFVCA-OH; disulfide 5-21, 12-25, 20-37) |
| 185 | CC[C@H](C)[C@@H]1NC(=O)[C@H](C)NC(=O)CNC(=O)[C@H](CO)NC(=O)[C@@H]2CCCN2C(=O)[C@H](CO)NC(=O)[C@@H](NC(=O)[C@@H](N)CCCCN)CSSC[C@@H]2NC(=O)[C@@H]3CSSC[C@@H](C(=O)N[C@@H](CCC(N)=O)C(=O)O)NC(=O)[C@H](C(C)C)NC(=O)[C@H](Cc4ccccc4)NC(=O)[C@H]([C@@H](C)CC)NC(=O)[C@H](CCCNC(=N)N)NC(=O)[C@H](CC(C)C)NC(=O)[C@H]([C@@H](C)CC)NC(=O)[C@@H]4CCCN4C(=O)[C@H](Cc4cnc[nH]4)NC(=O)[C@@H]4CCCN4C(=O)[C@H](C(C)C)NC(=O)[C@H](CSSC[C@H](NC1=O)C(=O)N[C@@H](CO)C(=O)NCC(=O)N[C@@H](Cc1ccccc1)C(=O)NCC(=O)N1CCC[C@H]1C(=O)N1CCC[C@H]1C(=O)N[C@@H](CCC(=O)O)C(=O)N[C@@H](CCC(N)=O)C(=O)N3)NC(=O)[C@H](C)NC(=O)CNC(=O)[C@H](CO)NC2=O (H-KCSPSGAICSGFGPPEQCCSGACVPHPILRIFVCQ-OH; disulfide 2-19, 9-23, 18-34) |

Source: ChEMBL document CHEMBL4699599, “Discovery of a Beetroot Protease Inhibitor to Identify and Classify Plant-Derived Cystine Knot Peptides” (J Nat Prod, 2020)
